Like-named read-outs stand apart in the source and are kept apart here.
Key:
[1] = biological target: T1, μ opioid receptor (Cavia porcellus, UniProt A0ACM8Q262); experiment: Bonding (binding) assay, guinea pig brain homogenate, 3H-DAGO (hot) / naloxone (cold); settings: for Ki: guinea pig brain homogenate; for Ki ratio κ/μ: selectivity ratio
T1 construct: 3H-DAGO (DAMGO) radioligand, cold naloxone
Experimental: (§1) In the test for bonding, the homogenate of the brain of a guinea pig was diluted with Tris buffer in a ratio calculated to give to the produced solution a protein content of 0.7 mg per prot/tube was used as incorporated in the reaction solution. With regard to ligands for binding assay, 3H-DAGO (μ), DPDPE (δ), and EKC (κ) were used for hot samples and naloxone (μ), DADLE (δ), and naloxone (κ) for cold samples.

[2] = biological target: T2, δ opioid receptor (Cavia porcellus, UniProt A0A286XTF2); experiment: Bonding (binding) assay, guinea pig brain homogenate, DPDPE (hot) / DADLE (cold)
T2 construct: the homogenate of the brain of a guinea pig; from tissue; host or cells: guinea pig brain homogenate
Experimental: as §1

[3] = test system: δ opioid receptor; experiment: as above; settings: μ/δ
Experimental: as §1

[4] = biological target: T3, κ opioid receptor (Cavia porcellus, UniProt P41144); experiment: Bonding (binding) assay, guinea pig brain homogenate, EKC (hot) / naloxone (cold)
T3 construct: the homogenate of the brain of a guinea pig; from tissue; host or cells: guinea pig brain homogenate
Experimental: as §1

[5] = test system: Mouse Vas Deferens (MVD); experiment: Agonist activity in Mouse Vas Deferens (MVD); settings: read-out: MVD IC50
Experimental: (§2) The test of the compounds of this invention for agonist and antagonist activities was carried out in according to the method proposed by Takemori et al. (Takemori, A, E. et al.: Eur. J. Pharmacal., 1982, 85, 163) using Guinea Pig Ileal Longitudinal Muscle Mouse Vas Deferens (MVD).

[6] = biological target: T4, δ-receptor (Mus musculus, UniProt P32300); experiment: Antagonism to DPDPE in Mouse Vas Deferens (MVD)
T4 construct: from tissue; host or cells: mouse vas deferens

[7] = test system: Guinea Pig Ileal Longitudinal Muscle; experiment: Agonist activity in Guinea Pig Ileal Longitudinal Muscle (GPI); settings: for IC50: guinea pig ileum
Experimental: as §2

[8] = test system: Guinea Pig Ileal Longitudinal Muscle; experiment: GPI, shift of the compound's effect by naloxone or nor-BNI; set-up: GPI nor-BN1 Ke: unit not given here
Experimental: as §2

[9] = test system: mouse T cells; experiment: Inhibiting proliferation of mouse T cells by Con-A stimulation ([3H]thymidine uptake, spleen cells); type: cell-based; settings: for IC50: ConA-stimulated mouse T cells
Experimental: Now, the immunosuppressive activity of the compound 19 which is representative of the compounds of the present invention will be shown. Activity in inhibiting proliferation of mouse T cells by Con-A stimulation
A monocellular suspension was prepared by sterilely removing the spleen from a mouse and passing the spleen through a mesh. This suspension was adjusted to a concentration of 5×10^6 cells/ml and dispensed by the unit of 100 μl in all the individual wells of a 96-well plate. […] Eight hours before completion of the incubation, [^3 H]thymidine was added to the contents of the wells in a fixed ratio of 2 μCi/10 μl/well. Eight hours after this addition, the cells in the wells were collected on filter papers with the aid of a cell harvester. The cells on the filter papers were dried, then combined with a toluene type scintillator, and counted for the radioactivity of the [^3 H] thymidine occluded in the cells by means of a scintillation counter.
The ratio of suppression of T cell proliferation was calculated in accordance with the following formula:
Rate of suppression=(Radioactivity in the absence of compound-Radioactivityafter addition of compound)/(Radioactivity in the absence of compound-Radioactivity in the absence of ConA)

[10] = guinea pig brain homogenate, read-out: Bonding assay Ki value δ

T4 sequence (P32300 whole entry): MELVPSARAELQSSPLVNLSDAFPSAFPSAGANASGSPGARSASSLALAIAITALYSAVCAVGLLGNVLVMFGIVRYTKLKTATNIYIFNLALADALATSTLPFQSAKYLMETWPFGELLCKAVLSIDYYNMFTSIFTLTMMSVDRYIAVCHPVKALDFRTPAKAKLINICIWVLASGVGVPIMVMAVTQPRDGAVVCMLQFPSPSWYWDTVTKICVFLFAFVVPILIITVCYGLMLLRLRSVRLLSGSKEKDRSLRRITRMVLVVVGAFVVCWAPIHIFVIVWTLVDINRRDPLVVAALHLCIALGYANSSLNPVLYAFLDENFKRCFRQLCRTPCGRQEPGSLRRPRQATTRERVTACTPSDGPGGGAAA
T2 sequence (A0A286XTF2 1-366): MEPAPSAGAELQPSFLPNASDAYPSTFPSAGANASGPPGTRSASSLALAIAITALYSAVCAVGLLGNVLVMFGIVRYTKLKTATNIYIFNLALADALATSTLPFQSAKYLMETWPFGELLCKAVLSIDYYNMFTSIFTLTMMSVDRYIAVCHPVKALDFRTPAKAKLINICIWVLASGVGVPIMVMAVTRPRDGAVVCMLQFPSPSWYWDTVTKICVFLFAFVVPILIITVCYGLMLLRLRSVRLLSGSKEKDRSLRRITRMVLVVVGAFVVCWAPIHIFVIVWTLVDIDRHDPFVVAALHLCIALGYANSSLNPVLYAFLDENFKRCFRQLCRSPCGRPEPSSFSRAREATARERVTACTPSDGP
T1 sequence (A0ACM8Q262 1-400): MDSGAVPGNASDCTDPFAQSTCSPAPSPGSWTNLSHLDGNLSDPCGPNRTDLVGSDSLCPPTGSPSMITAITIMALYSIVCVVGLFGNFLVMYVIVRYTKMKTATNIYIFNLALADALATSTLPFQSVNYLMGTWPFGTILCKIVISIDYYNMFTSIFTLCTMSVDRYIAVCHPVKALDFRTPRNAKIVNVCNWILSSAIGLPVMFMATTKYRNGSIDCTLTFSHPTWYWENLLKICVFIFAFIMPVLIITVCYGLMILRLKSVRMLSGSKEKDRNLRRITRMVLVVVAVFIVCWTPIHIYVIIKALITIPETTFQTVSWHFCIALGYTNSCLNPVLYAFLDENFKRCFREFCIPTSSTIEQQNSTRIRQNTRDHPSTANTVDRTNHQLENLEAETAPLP
T3 sequence (P41144 whole entry): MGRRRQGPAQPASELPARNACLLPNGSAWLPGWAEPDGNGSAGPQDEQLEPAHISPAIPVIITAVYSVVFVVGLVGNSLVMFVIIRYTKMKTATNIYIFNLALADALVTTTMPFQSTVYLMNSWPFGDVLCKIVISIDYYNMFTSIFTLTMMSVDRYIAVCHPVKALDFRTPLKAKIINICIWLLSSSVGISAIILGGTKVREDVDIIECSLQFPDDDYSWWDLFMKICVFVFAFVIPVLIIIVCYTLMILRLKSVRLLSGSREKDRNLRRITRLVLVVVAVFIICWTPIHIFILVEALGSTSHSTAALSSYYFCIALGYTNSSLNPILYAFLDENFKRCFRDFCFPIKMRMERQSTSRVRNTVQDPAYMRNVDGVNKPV

**Q.** Which Ki [1] does the source give for CN1CC[C@]2(c3cccc(O)c3)Cc3c(c4ccccc4n3C)C[C@H]2C1 (relative stereo) [Compound 12, 2-Methyl-4aα-(3-hydroxyphenyl)-1,2,3,4,4a,5,11,11aβ-octahydro-6-methyl-indolo[2,3-g]isoquinoline] here?
**A.** 1230 nM

**Q.** What about the “Ki ratio κ/μ” value [1] of the same compound?
**A.** 0.31

**Q.** What about the Ki [2, 10] of the same compound?
**A.** 120 nM

**Q.** And the “Ki ratio μ/δ” value [3]?
**A.** 3.17

**Q.** And the “Ki ratio μ/δ” value ([3]; selectivity ratio)?
**A.** 10.3

**Q.** What about the Ki [4] of the same compound?
**A.** 380 nM

**Q.** What about the IC50 [5] of the same compound?
**A.** 25000 nM

**Q.** What about the Kb ([6]; at 100 nM) of the same compound?
**A.** 138 nM

**Q.** What about the “MVD Antagonism to DPDPE at 100 nM, DR” value ([6]; at 100 nM) of the same compound?
**A.** 8.27

**Q.** And the IC50 [7]?
**A.** 38700 nM

**Q.** And the “GPI naloxone DR” value [8]?
**A.** 0.61

**Q.** And the “GPI nor-BN1 DR” value [8]?
**A.** 0.70

**Q.** How did the Ki [1] turn out when CN1CC[C@]2(c3cccc(O)c3)Cc3[nH]c4c(F)cccc4c3C[C@H]2C1 (relative stereo) [Compound 8, 2-Methyl-4aα-(3-hydroxyphenyl)-7-fluoro-1,2,3,4,4a,5,11,11aβ-octahydro-6H-indolo[2,3-g]isoquinoline] was run?
**A.** 4590 nM

**Q.** And the “Ki ratio κ/μ” value [1]?
**A.** > 1.47

**Q.** What about the Ki [2] of the same compound?
**A.** 59 nM

**Q.** And the “Ki ratio μ/δ” value [3]?
**A.** > 114

**Q.** What about the “Ki ratio μ/δ” value ([3]; selectivity ratio) of the same compound?
**A.** 77.8

**Q.** And the Ki [4]?
**A.** > 6750 nM

**Q.** And the IC50 [5]?
**A.** 25900 nM

**Q.** And the Kb ([6]; MVD Antagonism to DPDPE at 100 nM, pA2, at 100 nM)?
**A.** 70.8 nM

**Q.** What about the “MVD Antagonism to DPDPE at 100 nM, DR” value ([6]; at 100 nM) of the same compound?
**A.** 15.0

**Q.** What about the IC50 [7] of the same compound?
**A.** 23000 nM

**Q.** And the “GPI naloxone DR” value [8]?
**A.** 0.80

**Q.** What about the “GPI nor-BN1 DR” value [8] of the same compound?
**A.** 1.04

**Q.** For Cc1ccc2[nH]c3c(c2c1)C[C@H]1CN(C)CC[C@]1(c1cccc(O)c1)C3 (relative stereo) [Compound 4, 2-Methyl-4aα-(3-hydroxyphenyl)-9-methyl-1,2,3,4,4a,5,11,11aβ-octahydro-6H-indolo[2,3-q]isoquinoline], which Ki [1] is on record?
**A.** 6420 nM

**Q.** And the “Ki ratio κ/μ” value [1]?
**A.** > 1.81

**Q.** What about the Ki [2, 10] of the same compound?
**A.** 1240 nM

**Q.** What about the “Ki ratio μ/δ” value [3] of the same compound?
**A.** > 9.35

**Q.** And the “Ki ratio μ/δ” value ([3]; selectivity ratio)?
**A.** 5.18

**Q.** What about the Ki [4] of the same compound?
**A.** > 11600 nM

**Q.** What about the IC50 [5] of the same compound?
**A.** 46100 nM

**Q.** And the Kb ([6]; at 100 nM)?
**A.** 427 nM

**Q.** What about the “MVD Antagonism to DPDPE at 100 nM, DR” value ([6]; at 100 nM) of the same compound?
**A.** 3.37

**Q.** What about the IC50 [7] of the same compound?
**A.** 28000 nM

**Q.** What about the “GPI naloxone DR” value [8] of the same compound?
**A.** 0.62

**Q.** What about the “GPI nor-BN1 DR” value [8] of the same compound?
**A.** 1.17

**Q.** CN1CC[C@]2(c3cccc(O)c3)Cc3[nH]c4ccccc4c3C[C@H]2C1 (relative stereo) [Compound 2, 2-Methyl-4aα-(3-hydroxyphenyl)-1,2,3,4,4a,5,11,11aβ-octahydro-6H-indolo[2,3-g]isoquinoline] was tested. Which Ki [1] did it give?
**A.** 1650 nM

**Q.** And the “Ki ratio κ/μ” value [1]?
**A.** > 3.62

**Q.** And the Ki [2, 10]?
**A.** 193 nM

**Q.** And the “Ki ratio μ/δ” value [3]?
**A.** > 30.9

**Q.** And the “Ki ratio μ/δ” value ([3]; selectivity ratio)?
**A.** 8.55

**Q.** What about the Ki [4] of the same compound?
**A.** > 5970 nM

**Q.** What about the IC50 [5] of the same compound?
**A.** 68600 nM

**Q.** And the Kb ([6]; at 100 nM)?
**A.** 138 nM

**Q.** And the “MVD Antagonism to DPDPE at 100 nM, DR” value ([6]; at 100 nM)?
**A.** 8.14

**Q.** And the IC50 [7]?
**A.** 65100 nM

**Q.** What about the “GPI naloxone DR” value [8] of the same compound?
**A.** 1.12

**Q.** What about the “GPI nor-BN1 DR” value [8] of the same compound?
**A.** 1.25

**Q.** And the “GPI nor-BN1 Ke” value [8]?
**A.** 301

**Q.** And the “GPI nor-BN1 pA2” value [8]?
**A.** 6.65

**Q.** Which results are given for Oc1cccc([C@]23CCN(CC4CC4)C[C@@H]2Cc2c([nH]c4ccccc24)C3)c1 (relative stereo) [Compound 19, 2-Cyclopropylmethyl-4aα-(3-hydroxyphenyl)-1,2,3,4,4a,5,11,11β-octahydro-6H-indolo[2,3-g]isoquinoline]?
**A.** Ki [1]: 716 nM; Ki [2]: 3.5 nM; Ki [4]: 951 nM; IC50 [5]: 28900 nM; MVD Antagonism to DPDPE, DR ([6]; (20 nM)): 5.17; MVD Antagonism to DPDPE, DR ([6]; (50 nM)): 9.62; Kb ([6]; MVD Antagonism to DPDPE, pA2, (20 nM)): 5.01 nM; Kb ([6]; MVD Antagonism to DPDPE, pA2, (50 nM)): 6.03 nM; effect on inhibition of contraction by DPDPE, in words ([6]; Mouse Vas Deferens): selectively attenuate the inhibition of contraction by DPDPE; effect on contraction of guinea pig ileum, in words [7]: avoids affecting the inhibition of contraction of the ileum of a guinea pig; IC50 [7]: 34600 nM; GPI naloxone DR [8]: 0.93; GPI nor-BN1 DR [8]: 0.95; activity in immunosuppression / inhibiting T cell proliferation, in words [9]: clearly strong activity in immunosuppression; inhibition at 0.1 µg/mL ([9]; Mus musculus, T-cell, 48 h, 0.1 μg/ml, n = 3, read-out: Ratio of suppression of T cell proliferation): 6%; inhibition at 0.5 µg/mL ([9]; Mus musculus, T-cell, 48 h, 0.5 μg/ml, n = 3, read-out: Ratio of suppression of T cell proliferation): 0%; inhibition at 0.75 µg/mL ([9]; Mus musculus, T-cell, 48 h, 0.75 μg/ml, n = 3, read-out: Ratio of suppression of T cell proliferation): 18%; inhibition at 1 µg/mL ([9]; Mus musculus, T-cell, 48 h, 1.0 μg/ml, n = 3, read-out: Ratio of suppression of T cell proliferation): 1%; inhibition at 2.5 µg/mL ([9]; Mus musculus, T-cell, 48 h, 2.5 μg/ml, n = 3, read-out: Ratio of suppression of T cell proliferation): 33%; inhibition at 5 µg/mL ([9]; Mus musculus, T-cell, 48 h, 5.0 μg/ml, n = 3, read-out: Ratio of suppression of T cell proliferation): 94%; inhibition at 7.5 µg/mL ([9]; Mus musculus, T-cell, 48 h, 7.5 μg/ml, n = 3, read-out: Ratio of suppression of T cell proliferation): 100%; inhibition at 10 µg/mL ([9]; Mus musculus, T-cell, 48 h, 10.0 μg/ml, n = 3, read-out: Ratio of suppression of T cell proliferation): 100%; inhibition at 12.5 µg/mL ([9]; Mus musculus, T-cell, 48 h, 12.5 μg/ml, n = 3, read-out: Ratio of suppression of T cell proliferation): 100%; inhibition at 15 µg/mL ([9]; Mus musculus, T-cell, 48 h, 15.0 μg/ml, n = 3, read-out: Ratio of suppression of T cell proliferation): 100%; inhibition at 17.5 µg/mL ([9]; Mus musculus, T-cell, 48 h, 17.5 μg/ml, n = 3, read-out: Ratio of suppression of T cell proliferation): 100%; inhibition at 20 µg/mL ([9]; Mus musculus, T-cell, 48 h, 20.0 μg/ml, n = 3, read-out: Ratio of suppression of T cell proliferation): 100%; IC50 ([9]; Mus musculus, T-cell, read-out: IC50, activity in inhibiting T cell hyperplasia (Table 3)): 2.7 µg/mL; IC50 ([9]; Mus musculus, T-cell, read-out: IC50 value, immunosuppression (text to Table 2)): 3 µg/mL

**Q.** For CN1CC[C@]2(c3cccc(O)c3)Cc3[nH]c4ccc(Cl)cc4c3C[C@H]2C1 (relative stereo) [Compound 6, 2-Methyl-4aα-(3-hydroxyphenyl)-9-chloro-1,2,3,4,4a,5,11,11aβ-octahydro-6H-indolo[2,3-q]isoquinoline], which Ki [1] is on record?
**A.** > 7090 nM

**Q.** And the “Ki ratio κ/μ” value [1]?
**A.** > 3.86

**Q.** And the Ki [2, 10]?
**A.** 1100 nM

**Q.** What about the “Ki ratio μ/δ” value [3] of the same compound?
**A.** > 24.9

**Q.** And the “Ki ratio μ/δ” value ([3]; selectivity ratio)?
**A.** > 6.45

**Q.** What about the Ki [4] of the same compound?
**A.** > 27400 nM

**Q.** What about the IC50 [5] of the same compound?
**A.** 23600 nM

**Q.** What about the Kb ([6]; at 100 nM) of the same compound?
**A.** 240 nM

**Q.** And the “MVD Antagonism to DPDPE at 100 nM, DR” value ([6]; at 100 nM)?
**A.** 5.16

**Q.** What about the IC50 [7] of the same compound?
**A.** 7900 nM

**Q.** And the “GPI naloxone DR” value [8]?
**A.** 0.86

**Q.** And the “GPI nor-BN1 DR” value [8]?
**A.** 1.23

**Q.** What about the “GPI nor-BN1 Ke” value [8] of the same compound?
**A.** 77.0

**Q.** What about the “GPI nor-BN1 pA2” value [8] of the same compound?
**A.** 7.16
